Consider 39 molecules from patent publication US12064426B2, “Selective inhibitors of ROCK1 and ROCK2 protein kinases and uses thereof” (GENOSCO Inc., priority 2021, dated 2024).

In test [1] the target is T1, Recombinant ROCK1 (amino acids 1-477) (Homo sapiens, UniProt Q13464).
T1 construct: Recombinant ROCK1 (amino acids 1-477); by word order, ROCK1 from Carna Biosciences
The test is described as follows: ROCK inhibition assay, LANCE Ultra TR-FRET kinase assay (ROCK1). Format: biochemical. Conditions: 1 μM ATP, 50 nM ULight-CREBtide substrate. Here is the method: (§1) Kinase IC50 was determined through an in vitro assay based on LANCE Ultra TR-FRET (Time-Resolved Fluorescence Resonance Energy Transfer) homogeneous technologies method (Perkin Elmer). Recombinant ROCK1 (amino acids 1-477) and ROCK2 (amino acids 5-554) proteins were purchased from Carna Biosciences and SignalChem. Compound activities were measured by Envision and IC50s were calculated. The assays were performed in white LUMITRAC™ 200 96 well half-area microplates from Greiner Bio-One. The kinase reaction buffer consisted of 50 mM HEPES pH 7.5, 1 mM EGTA, 10 mM MgCl2, 2 mM DTT and 0.01% Tween-20. Kinases were incubated with 50 nM (ULight-CREBtide) substrate in the presence of 1 (ROCK1) or 4 (ROCK2) μM ATP. The kinase reaction was carried out for 1 hour before addition of a stopping buffer to a final of 10 mM EDTA and 0.6 nM of LANCE Ultra Europium anti-phospho-CREB (Ser133) antibody (PerkinElmer TRF0200) in LANCE detection buffer. All assay incubations were performed at room temperature, and the microplates were sealed with polyester film during that time. The reaction was incubated for 1 hour, and the signal was read in Envision in TR-FRET mode (excitation at 320 nm and emission at 615/665 nm).
(§2) As used herein, a way to describe potency of inhibitory activity (nM) is a value of inhibitory activity at 50% (IC50).

The target in test [2] is T2, Recombinant ROCK2 (amino acids 5-554) (Homo sapiens, UniProt O75116).
T2 construct: ROCK2 (amino acids 5-554); by word order, ROCK2 from SignalChem
The test is described as follows: ROCK inhibition assay, LANCE Ultra TR-FRET kinase assay (ROCK2). Format: biochemical. To be noted: 4 μM ATP, 50 nM ULight-CREBtide substrate. The method, then:
as §1, §2
For orientation: Time-resolved FRET reads energy transfer from a long-lived donor to a nearby acceptor.

T2 sequence (O75116 5-554): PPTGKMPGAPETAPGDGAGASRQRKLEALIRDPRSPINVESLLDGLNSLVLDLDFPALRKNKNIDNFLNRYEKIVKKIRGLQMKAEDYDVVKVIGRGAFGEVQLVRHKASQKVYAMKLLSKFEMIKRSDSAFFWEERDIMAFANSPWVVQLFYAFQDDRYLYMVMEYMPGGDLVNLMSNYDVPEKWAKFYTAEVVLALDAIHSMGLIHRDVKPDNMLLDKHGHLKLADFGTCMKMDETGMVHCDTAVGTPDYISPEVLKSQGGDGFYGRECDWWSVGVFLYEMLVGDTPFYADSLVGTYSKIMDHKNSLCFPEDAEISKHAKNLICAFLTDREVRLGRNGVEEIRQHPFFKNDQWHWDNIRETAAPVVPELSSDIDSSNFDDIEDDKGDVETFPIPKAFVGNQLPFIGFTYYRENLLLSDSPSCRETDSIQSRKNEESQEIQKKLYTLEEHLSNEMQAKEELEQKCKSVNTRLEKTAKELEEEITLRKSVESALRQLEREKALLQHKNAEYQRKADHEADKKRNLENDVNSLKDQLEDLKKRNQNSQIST
T1 sequence (Q13464 1-477): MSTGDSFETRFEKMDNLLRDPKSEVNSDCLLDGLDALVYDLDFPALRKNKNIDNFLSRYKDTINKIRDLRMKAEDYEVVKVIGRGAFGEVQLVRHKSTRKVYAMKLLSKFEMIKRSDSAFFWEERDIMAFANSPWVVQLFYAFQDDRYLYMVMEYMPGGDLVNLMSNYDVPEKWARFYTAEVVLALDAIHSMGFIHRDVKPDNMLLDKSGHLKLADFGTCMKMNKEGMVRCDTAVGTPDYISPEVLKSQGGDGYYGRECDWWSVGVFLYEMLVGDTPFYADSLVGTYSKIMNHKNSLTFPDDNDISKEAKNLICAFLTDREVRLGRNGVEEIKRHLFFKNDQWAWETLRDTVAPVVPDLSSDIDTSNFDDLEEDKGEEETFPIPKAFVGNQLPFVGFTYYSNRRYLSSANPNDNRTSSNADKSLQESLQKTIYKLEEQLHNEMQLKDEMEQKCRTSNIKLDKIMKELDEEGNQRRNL

As usually defined, the IC50 is the concentration needed to halve the response being measured. `O=C(NCC1CCOCC1)c1cccc(Cn2ccc3cc(-c4c[nH]nc4C(F)F)ccc3c2=O)c1` [Compound 55]: the IC50 in test [1] is 11 to 100 nM; in test [2], below 10 nM.

For `CN1CCC(CNC(=O)c2cccc(Cn3ccc4cc(-c5c[nH]nc5C(F)F)ccc4c3=O)c2)CC1` [Compound 56], the IC50 in test [1] and in test [2] was below 10 nM in each case.

On to `O=C(NCC1CCNCC1)c1cccc(Cn2ccc3cc(-c4c[nH]nc4C(F)F)ccc3c2=O)c1` [Compound 57], for which the IC50 in test [1] and in test [2] was below 10 nM in each case.

On to `O=C(NCC1COC1)c1cccc(Cn2ccc3cc(-c4c[nH]nc4C(F)F)ccc3c2=O)c1` [Compound 58], for which the figures for the IC50 in test [1] and in test [2] were 11 to 100 nM and below 10 nM, respectively.

For `O=C(NCC1COC1)c1cc(F)cc(Cn2ccc3cc(-c4c[nH]nc4C(F)F)ccc3c2=O)c1` [Compound 59], the IC50 in test [1] is 11 to 100 nM; in test [2], below 10 nM.

For `O=C(NCC1CCOCC1)c1cc(F)cc(Cn2ccc3cc(-c4c[nH]nc4C(F)F)ccc3c2=O)c1` [Compound 60], the values for the IC50 in test [1] and in test [2] were 11 to 100 nM and below 10 nM, respectively.

Turning to `O=C(NCC1CCNCC1)c1cc(F)cc(Cn2ccc3cc(-c4c[nH]nc4C(F)F)ccc3c2=O)c1` [Compound 61], the IC50 in test [1] and in test [2] was below 10 nM throughout.

In the case of `CN1CCC(CNC(=O)c2cc(F)cc(Cn3ccc4cc(-c5c[nH]nc5C(F)F)ccc4c3=O)c2)CC1` [Compound 62], the IC50 in test [1] and in test [2] was below 10 nM in each case.

Turning to `O=C(NCC1COC1)c1cccc(Cn2ccc3cc(-c4c[nH]nc4Cl)ccc3c2=O)c1` [Compound 63], the IC50 in test [1] was 11 to 100 nM; in test [2], below 10 nM.

As for `CN1CCC(CNC(=O)c2cccc(Cn3ccc4cc(-c5c[nH]nc5Cl)ccc4c3=O)c2)CC1` [Compound 64], the IC50 in test [1] and in test [2] was below 10 nM throughout.

Take `O=C(NCCO)c1cc(F)cc(Cn2ccc3cc(-c4c[nH]nc4Cl)ccc3c2=O)c1` [Compound 65]: the figures for the IC50 in test [1] and in test [2] were 101 to 500 nM and 10 to 100 nM, respectively.

In the case of `O=C(N[C@H]1CC[C@@H](O)CC1)c1cc(F)cc(Cn2ccc3cc(-c4c[nH]nc4Cl)ccc3c2=O)c1` [Compound 66], the IC50 in test [1] was 11 to 100 nM; in test [2] it was below 10 nM.

With `Cc1nocc1-c1ccc2c(=O)n(Cc3cccc(C(=O)NCC(F)(F)F)c3)ccc2c1` [Compound 67], the IC50 in test [1] was in the range of 11 to 100 nM; in test [2], 10 to 100 nM.

In the case of `Cc1nocc1-c1ccc2c(=O)n(Cc3cccc(C(=O)NCC4CC4)c3)ccc2c1` [Compound 68], the IC50 in test [1] fell in the range of 11 to 100 nM; in test [2], 10 to 100 nM.

For the molecule `Cc1nocc1-c1ccc2c(=O)n(Cc3cccc(C(=O)NCCN4CCOCC4)c3)ccc2c1` [Compound 69], the IC50 lay in the range of 101 to 500 nM in test [1] and 10 to 100 nM in test [2].

Regarding `Cc1nocc1-c1ccc2c(=O)n(Cc3cccc(C(=O)NCCN4CCN(C)CC4)c3)ccc2c1` [Compound 70], the IC50 in test [1] and in test [2] was below 10 nM in each case.

As for `Cc1nocc1-c1ccc2c(=O)n(Cc3cccc(C(=O)NCC4COC4)c3)ccc2c1` [Compound 71], the IC50 was 11 to 100 nM in test [1] and below 10 nM in test [2].

As for `Cc1nocc1-c1ccc2c(=O)n(Cc3cccc(C(=O)N[C@H]4C[C@@H](O)C4)c3)ccc2c1` [Compound 72], the IC50 in test [1] was in the range of 101 to 500 nM; in test [2], 10 to 100 nM.

Take `Cc1nocc1-c1ccc2c(=O)n(Cc3cccc(C(=O)N[C@H]4C[C@H](O)C4)c3)ccc2c1` [Compound 73]: the results for the IC50 in test [1] and in test [2] were 101 to 500 nM and 10 to 100 nM, respectively.

Consider `Cc1nocc1-c1ccc2c(=O)n(Cc3cccc(C(=O)N[C@H]4CC[C@@H](O)CC4)c3)ccc2c1` [Compound 74], for which the IC50 was 101 to 500 nM in test [1] and 10 to 100 nM in test [2].

In the case of `Cc1nocc1-c1ccc2c(=O)n(Cc3cccc(C(=O)NCc4ccc(F)nc4)c3)ccc2c1` [Compound 76], the figures for the IC50 in test [1] and in test [2] were 11 to 100 nM and below 10 nM, respectively.

With `Cc1nocc1-c1ccc2c(=O)n(Cc3cccc(C(=O)NCC4CCN(C)CC4)c3)ccc2c1` [Compound 78], the IC50 is 11 to 100 nM in test [1] and below 10 nM in test [2].

Regarding `Cc1nocc1-c1ccc2c(=O)n(Cc3cccc(C(=O)NCC4CCNCC4)c3)ccc2c1` [Compound 79], the IC50 in test [1] was 11 to 100 nM; in test [2], below 10 nM.

In the case of `Cc1nocc1-c1ccc2c(=O)n(Cc3cccc(C(=O)NCC4CCN(C5CC5)CC4)c3)ccc2c1` [Compound 80], the IC50 in test [1] lay within 101 to 500 nM; in test [2], 10 to 100 nM.

For `Cc1nocc1-c1ccc2c(=O)n(Cc3cccc(C(=O)NCC4CCN(C(C)C)CC4)c3)ccc2c1` [Compound 81], the values for the IC50 in test [1] and in test [2] were 101 to 500 nM and 10 to 100 nM, respectively.

For `Cc1nocc1-c1ccc2c(=O)n(Cc3cccc(C(=O)NCC4CCN(CC(F)(F)F)CC4)c3)ccc2c1` [Compound 83], the results for the IC50 in test [1] and in test [2] were 101 to 500 nM and 10 to 100 nM, respectively.

As for `Cc1nocc1-c1ccc2c(=O)n(Cc3cccc(C(=O)NCC4CCN(C5COC5)CC4)c3)ccc2c1` [Compound 84], the IC50 in test [1] is 101 to 500 nM; in test [2] it was 10 to 100 nM.

Take `Cc1nocc1-c1ccc2c(=O)n(Cc3cccc(C(=O)NC4CCNCC4)c3)ccc2c1` [Compound 85]: the IC50 in test [1] was 11 to 100 nM; in test [2], below 10 nM.

Regarding `Cc1nocc1-c1ccc2c(=O)n(Cc3cccc(C(=O)NC4CCN(CC(F)(F)F)CC4)c3)ccc2c1` [Compound 87], the IC50 is 11 to 100 nM in test [1] and below 10 nM in test [2].

On to `Cc1nocc1-c1ccc2c(=O)n(Cc3cccc(C(=O)NC4CCN(C5COC5)CC4)c3)ccc2c1` [Compound 88], for which the IC50 was in the range of 101 to 500 nM in test [1] and 10 to 100 nM in test [2].

Consider `Cc1nocc1-c1ccc2c(=O)n(Cc3cccc(C(=O)Nc4ccn(C)n4)c3)ccc2c1` [Compound 89], for which the IC50 in test [1] is above 501 nM; in test [2] it was 100 to 500 nM.

For the molecule `Cc1nocc1-c1ccc2c(=O)n(Cc3cccc(C(=O)Nc4ccon4)c3)ccc2c1` [Compound 90], the IC50 in test [1] was above 501 nM; in test [2], 100 to 500 nM.

Turning to `Cc1nocc1-c1ccc2c(=O)n(Cc3cccc(C(=O)Nc4ccc5c(c4)CCOC5)c3)ccc2c1` [Compound 91], the IC50 in test [1] is 11 to 100 nM; in test [2], below 10 nM.

On to `Cc1nocc1-c1ccc2c(=O)n(Cc3cccc(C(=O)Nc4ccc5c(c4)COCC5)c3)ccc2c1` [Compound 92], for which the IC50 in test [1] is 11 to 100 nM; in test [2], below 10 nM.

`Cc1nocc1-c1ccc2c(=O)n(Cc3cccc(C(=O)Nc4nc5c(s4)CCNC5)c3)ccc2c1` [Compound 93]: the IC50 in test [1] and in test [2] was below 10 nM in each case.

As to `Cc1nocc1-c1ccc2c(=O)n(Cc3cccc(C(=O)Nc4nc5c(s4)CCN(C)C5)c3)ccc2c1` [Compound 94], the IC50 in test [1] and in test [2] was below 10 nM in each case.

Take `Cc1nocc1-c1ccc2c(=O)n(Cc3cccc(C(=O)Nc4nc5c(s4)CCN(C(C)C)C5)c3)ccc2c1` [Compound 95]: the IC50 in test [1] was 11 to 100 nM; in test [2], below 10 nM.

Regarding `Cc1nocc1-c1ccc2c(=O)n(Cc3cccc(C(=O)Nc4ccc5c(c4)CCNC5)c3)ccc2c1` [Compound 96], the IC50 in test [1] and in test [2] was below 10 nM each time.

Consider `Cc1nocc1-c1ccc2c(=O)n(Cc3cccc(C(=O)Nc4ccc5c(c4)CCN(C)C5)c3)ccc2c1` [Compound 97], for which the IC50 in test [1] and in test [2] was below 10 nM each time.
